Measurements: PMC5507466, “The ubiquitin-conjugating enzyme CDC34 is essential for cytokinesis in contrast to putative subunits of a SCF complex in Trypanosoma brucei” (PLoS Neglected Tropical Diseases, 2017)

Molecular target: T1, TbCDC34 (Trypanosoma brucei, UniProt Q382B7)
T1 construct: gene Tb11.01.5790; N-terminal 6His-tagged, expressed in E. coli BL21(DE3)+pLysE, Ni-NTA purified; catalytic Cys84, Ser86
T1 sequence (Q382B7 1-247): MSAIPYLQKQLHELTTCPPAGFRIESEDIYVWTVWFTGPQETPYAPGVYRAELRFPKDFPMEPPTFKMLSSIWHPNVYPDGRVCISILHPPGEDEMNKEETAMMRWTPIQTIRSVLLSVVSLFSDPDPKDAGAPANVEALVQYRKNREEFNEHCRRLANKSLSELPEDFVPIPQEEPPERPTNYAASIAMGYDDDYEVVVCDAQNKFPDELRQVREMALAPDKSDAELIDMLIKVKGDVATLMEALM
Test: in vitro gel-based ubiquitination assay (anti-ubiquitin and anti-His western blot)
Format: biochemical
Details: 300 μM CC0651 vs DMSO; 10 μM E2, 100 nM human E1, 5 μM human ubiquitin; ATP; 37 °C, 0-4 h

COCC(=O)N[C@@H](Cc1ccc(-c2cc(Cl)cc(Cl)c2)cc1)[C@H](O)[C@@H](O)C(=O)O [CC0651]
in vitro gel-based ubiquitination assay (anti-ubiquitin and anti-His western blo): addition of CC0651 to the reaction had modest, but detectable effect on TbCDC34 activity
